Source: PubChem BioAssay (NCI)
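Tested at 5 concentrations; 48 h exposure; 96-well plates; endpoints linearly interpolated, else capped at highest concentration. The concentration for 50% growth inhibition is given as GI50. TGI is the concentration that stops growth completely.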

Assays:
Experiment in all cases: NCI-60 cell line screen, 48 h
DU-145 prostate = test system: DU-145 prostate
MCF7 breast = test system: MCF7 breast
MDA-MB-435 = test system: MDA-MB-435
NCI/ADR-RES ovarian = test system: NCI/ADR-RES ovarian
PC-3 prostate = test system: PC-3 prostate
T-47D breast = test system: T-47D breast

Structure (SMILES) | GI50 (DU-145 prostate) [µM] | TGI (DU-145 prostate) [µM] | GI50 (MCF7 breast) [µM] | TGI (MCF7 breast) [µM] | GI50 (MDA-MB-435) [µM] | TGI (MDA-MB-435) [µM] | GI50 (NCI/ADR-RES ovarian) [µM] | TGI (NCI/ADR-RES ovarian) [µM] | GI50 (PC-3 prostate) [µM] | TGI (PC-3 prostate) [µM] | GI50 (T-47D breast) [µM] | TGI (T-47D breast) [µM]
O=[N+]([O-])c1ccc2[nH]cc(-c3c4ccsc4cc4[nH]c5ccc([N+](=O)[O-])cc5c34)c2c1 | 0.833 | 2.69 | 0.606 | 4.75 | 0.145 | 33.3 | 0.744 | 8.22 | 0.931 | 6.36 | 0.864 | 4.46
Cc1ccc(C(=O)c2oc3ccc4c(C)cc(=O)oc4c3c2C)cc1 | 9.7 | > 100 | 5.95 | > 100 | 5.95 | > 100 | 10.2 | > 100 | 5.64 | > 100 | 50.1 | > 100
COc1ccc2c(c1)C(=O)CC(N)C2 (stereo not drawn) |  | > 100 |  | > 100 |  | > 100 |  | > 100 |  | > 100 |  | > 100
CCN(CC)CCNc1c(OC)cc(C)c2sc3ccccc3c(=O)c12 |  | 24.2 |  | 18.7 |  | 8.16 |  | 19.2 |  | 20.8 |  | 39.9
Nc1nc(-c2cccc([N+](=O)[O-])c2)c(Br)c(=O)[nH]1 |  | > 100 |  | > 65.3 |  | > 100 |  | > 100 |  | > 100 |  | > 100
O=C1c2cc(Br)ccc2-c2c1c1ccc([N+](=O)[O-])cc1c(=O)n2CCCCl | 0.0849 | 20.1 | < 0.01 | > 44 | 0.489 | 6.12 | 0.239 | 7.9 | 0.184 | > 100 | 0.0144 | 18.8
COc1cc(OC)c(/C=C/c2ccc3ccccc3[n+]2C)c(OC)c1 | 0.944 | 15.3 | 0.841 | 10.6 | 0.342 | 1.53 | > 66.4 | > 100 | 1.82 | 17.3 | 0.294 | 2.83
CC(=O)Oc1cc(C)ccc1[C@]1(C)CC[C@H](C)/C1=C\Br | 4.87 | 16.9 | 4.07 | 15.3 | 1.49 | 3.89 | 2.68 | 7.94 | 3.33 | 12.3 | 5.38 | 23.4
COc1cc2c(cc1OCc1ccccc1)N=C[C@@H]1C/C(=C/C(=O)NCCCN3C(=O)c4cccc5cccc(c45)C3=O)CN1C2=O | 0.381 | 11.9 | 0.256 | 14.3 | 0.673 | 3.05 | 12.8 | > 100 | 0.351 | 9.35 | 0.137 | 3.06
Nc1c(C(=O)c2ccccc2)sc2nc(-c3cccs3)ccc12 | 0.299 | 10 | 0.0878 | 4.6 | 0.027 | 1.03 | 0.0537 | 1.81 | 0.176 | 10.1 | 0.335 | 12.2
CN(C)c1ccc(/C=C2\Oc3cc(O)ccc3C2=O)cc1 |  | > 100 |  | > 100 |  | > 100 |  | > 100 |  | > 100 |  | > 100
Oc1ccc(Br)cc1Sc1cc(Br)ccc1O | 11.7 | 28.4 | 11.2 | 30 | 5.23 | 19.8 | 5.06 | 24.3 | 10.6 | 29.4 | 4.36 | 17.7
COc1cc([C@H](C)c2ccc3ccccc3c2)cc(OC)c1OC | 0.494 | > 100 |  |  |  |  | 0.145 | > 100 | 0.346 | > 100 | 0.626 | > 100
Oc1ccc(N=Nc2ccc(Cl)cc2)cc1 |  | 30.8 |  | 35.9 |  | 29 |  | 51.3 |  | 29.3 |  | 67.4
COc1cc2nc(-c3ccc(C(F)(F)F)cc3)cc(OCCCN3CCOCC3)c2cc1OC | 10.1 | 24 | 1.55 | 11.7 | 1.2 | 3.57 | 0.64 | 22.7 | 2.19 | 16.5 | 0.654 | 23.8
COC(=O)CCC/C=C\C[C@H]1C=CC(=O)/C1=C/C[C@@H](O)CCc1cccc(C(F)(F)F)c1 | 2.59 | 10 | 0.775 | 12.9 | 2.01 | 6.15 | 2.81 | 10.9 | 2.63 | 7.6 | 3.45 | 17
O=c1ccn(C2OC(CO)C(O)C2O)c(=O)[nH]1 (stereo not drawn) |  | > 1000 | > 1000 | > 1000 | > 1000 | > 1000 | > 1000 | > 1000 | > 1000 | > 1000 | > 1000 | > 1000
CN(C)CCNc1nc2ccccc2c2c1c1c(n2Cc2ccccc2)-c2ccccc2C1=O | 15 | 30.6 | 15.1 | 33.6 | 16.8 | 35.5 | 5.77 | 23.1 |  |  | 19.4 | 50.6
CCCCCCC/C=C/[C@H]1O[C@]23C(=O)C[C@@]4(C[C@@H](OC5OC(CO)C(O)C(O)C5O)C[C@@H]4[C@H]2C=C1C)OC3=O (stereo partly drawn) | 4.59 | 9.87 | 1.36 | 26.9 | 2.02 | 7.68 | 6.99 | > 33.3 | 3.81 | 12.9 | 0.911 | 9.69
CC[N+](CCCCCCCCCC[N+](CC)(c1ccccn1)c1ccccn1)(c1ccccn1)c1ccccn1 | 0.858 | 12.4 | 0.437 | 4.26 | 0.609 | 4.19 | 5.28 | 53.8 | 0.459 | 11.2 | 0.295 | 1.7
